Assay results reported in patent publication EP4722207A1, “OXOISOINDOLINYL-SUBSTITUTED TETRAHYDROPYRIMIDINEDIONE DERIVATIVE AND USE THEREOF” (Gluetacs Therapeutics (Shanghai) Co., Ltd., priority 2023, dated 2024).

Legend:
Type in all cases: cell-based
Conditions in all cases: 24 hours of compound treatment, 50 nM and 500 nM
IKZF3 = target: T1, IKZF3 (Homo sapiens, UniProt Q96SW2+Q9UKT9); test: Western-blot assay, substrate protein degradation in hPBMCs: IKZF3
T1 construct: effects of the compounds of the present disclosure on the expression of target proteins in cells; endogenous in cells; host or cells: human PBMCs (hPBMCs)
T1 sequence (Q9UKT9 whole entry): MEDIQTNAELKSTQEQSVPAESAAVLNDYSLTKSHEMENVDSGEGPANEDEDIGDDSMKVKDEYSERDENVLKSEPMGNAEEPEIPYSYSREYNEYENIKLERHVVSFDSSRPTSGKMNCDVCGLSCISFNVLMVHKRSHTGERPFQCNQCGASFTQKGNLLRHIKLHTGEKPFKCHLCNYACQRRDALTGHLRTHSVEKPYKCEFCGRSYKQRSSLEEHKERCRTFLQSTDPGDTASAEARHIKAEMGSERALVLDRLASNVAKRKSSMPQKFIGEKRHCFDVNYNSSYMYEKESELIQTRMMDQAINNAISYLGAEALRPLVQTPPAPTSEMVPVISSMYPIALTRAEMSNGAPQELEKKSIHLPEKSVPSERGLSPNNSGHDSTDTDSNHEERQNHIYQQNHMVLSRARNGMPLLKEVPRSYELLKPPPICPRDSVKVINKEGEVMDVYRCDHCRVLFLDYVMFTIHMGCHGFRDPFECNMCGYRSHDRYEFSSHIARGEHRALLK
T1 sequence (Q96SW2 whole entry): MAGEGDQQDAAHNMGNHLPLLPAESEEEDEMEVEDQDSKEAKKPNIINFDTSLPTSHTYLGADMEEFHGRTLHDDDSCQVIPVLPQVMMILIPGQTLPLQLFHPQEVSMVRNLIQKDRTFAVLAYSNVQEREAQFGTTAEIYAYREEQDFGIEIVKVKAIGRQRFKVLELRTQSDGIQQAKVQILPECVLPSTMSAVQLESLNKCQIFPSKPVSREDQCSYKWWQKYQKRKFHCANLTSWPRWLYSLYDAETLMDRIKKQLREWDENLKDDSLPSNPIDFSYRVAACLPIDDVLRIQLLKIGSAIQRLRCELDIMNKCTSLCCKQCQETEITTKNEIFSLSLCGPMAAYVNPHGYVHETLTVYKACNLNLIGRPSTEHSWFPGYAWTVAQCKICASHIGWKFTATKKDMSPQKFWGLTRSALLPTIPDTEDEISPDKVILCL
T1 sequence (Q16531 whole entry partner): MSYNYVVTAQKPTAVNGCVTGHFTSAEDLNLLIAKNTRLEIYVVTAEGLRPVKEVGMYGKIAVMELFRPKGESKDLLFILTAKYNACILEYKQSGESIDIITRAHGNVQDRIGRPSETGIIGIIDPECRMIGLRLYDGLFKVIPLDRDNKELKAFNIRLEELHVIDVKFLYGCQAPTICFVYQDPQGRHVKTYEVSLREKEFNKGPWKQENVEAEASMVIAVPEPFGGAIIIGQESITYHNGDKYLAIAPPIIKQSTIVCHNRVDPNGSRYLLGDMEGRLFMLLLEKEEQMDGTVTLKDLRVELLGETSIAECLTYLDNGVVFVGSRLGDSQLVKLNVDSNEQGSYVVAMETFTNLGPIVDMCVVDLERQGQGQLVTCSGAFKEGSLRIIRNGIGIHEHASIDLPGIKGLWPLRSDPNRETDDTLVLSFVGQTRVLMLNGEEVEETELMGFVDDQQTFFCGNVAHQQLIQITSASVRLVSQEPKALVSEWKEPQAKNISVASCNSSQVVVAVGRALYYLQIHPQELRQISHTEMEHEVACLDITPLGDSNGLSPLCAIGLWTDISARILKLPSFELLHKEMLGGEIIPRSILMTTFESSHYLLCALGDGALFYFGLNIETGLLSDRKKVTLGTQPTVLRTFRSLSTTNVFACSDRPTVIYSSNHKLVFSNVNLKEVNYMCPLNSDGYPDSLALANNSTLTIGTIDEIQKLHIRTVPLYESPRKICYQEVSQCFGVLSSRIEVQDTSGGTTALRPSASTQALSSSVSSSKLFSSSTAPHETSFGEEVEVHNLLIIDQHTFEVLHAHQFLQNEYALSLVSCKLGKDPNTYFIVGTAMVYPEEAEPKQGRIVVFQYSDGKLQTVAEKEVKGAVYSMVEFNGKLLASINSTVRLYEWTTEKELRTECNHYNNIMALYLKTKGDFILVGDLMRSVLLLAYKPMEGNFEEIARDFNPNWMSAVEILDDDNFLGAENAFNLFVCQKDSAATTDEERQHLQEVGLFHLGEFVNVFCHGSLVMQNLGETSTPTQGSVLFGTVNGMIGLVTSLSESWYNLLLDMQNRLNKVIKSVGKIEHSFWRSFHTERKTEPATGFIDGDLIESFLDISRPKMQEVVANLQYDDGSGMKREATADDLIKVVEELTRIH

CK1α = target: T2, CK1α (Homo sapiens, UniProt P48729+Q96SW2); test: Western-blot assay, substrate protein degradation in hPBMCs: CK1α
T2 construct: effects of the compounds of the present disclosure on the expression of target proteins in cells; endogenous in cells; host or cells: human PBMCs (hPBMCs)

IKZF2 = target: T3, IKZF2 (Homo sapiens, UniProt Q96SW2+Q9UKS7); test: Western-blot assay, substrate protein degradation in hPBMCs: IKZF2
T3 construct: effects of the compounds of the present disclosure on the expression of target proteins in cells; endogenous in cells; host or cells: human PBMCs (hPBMCs)
T3 sequence (Q9UKS7 whole entry): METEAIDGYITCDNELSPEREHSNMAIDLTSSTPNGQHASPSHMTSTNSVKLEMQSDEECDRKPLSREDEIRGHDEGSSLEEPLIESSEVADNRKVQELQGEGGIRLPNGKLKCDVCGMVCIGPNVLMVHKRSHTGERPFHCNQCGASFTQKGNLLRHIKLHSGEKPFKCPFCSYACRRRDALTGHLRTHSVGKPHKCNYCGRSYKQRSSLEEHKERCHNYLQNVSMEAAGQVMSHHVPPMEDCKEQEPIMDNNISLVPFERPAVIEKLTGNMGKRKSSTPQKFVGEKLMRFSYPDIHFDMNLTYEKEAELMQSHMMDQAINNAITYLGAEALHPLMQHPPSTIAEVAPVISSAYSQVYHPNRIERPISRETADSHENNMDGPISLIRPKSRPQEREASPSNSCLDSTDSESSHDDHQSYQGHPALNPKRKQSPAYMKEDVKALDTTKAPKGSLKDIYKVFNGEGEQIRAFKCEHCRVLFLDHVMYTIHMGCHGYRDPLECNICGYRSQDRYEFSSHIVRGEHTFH
T3 sequence (Q96SW2 whole entry): as the sequence (Q96SW2 whole entry) above
T3 sequence (Q16531 whole entry partner): as the sequence (Q16531 whole entry partner) above

WEE1 = target: T4, WEE1 (Homo sapiens, UniProt P30291+Q96SW2); test: Western-blot assay, substrate protein degradation in hPBMCs: WEE1
T4 construct: effects of the compounds of the present disclosure on the expression of target proteins in cells; endogenous in cells; host or cells: human PBMCs (hPBMCs)
T4 sequence (P30291 whole entry): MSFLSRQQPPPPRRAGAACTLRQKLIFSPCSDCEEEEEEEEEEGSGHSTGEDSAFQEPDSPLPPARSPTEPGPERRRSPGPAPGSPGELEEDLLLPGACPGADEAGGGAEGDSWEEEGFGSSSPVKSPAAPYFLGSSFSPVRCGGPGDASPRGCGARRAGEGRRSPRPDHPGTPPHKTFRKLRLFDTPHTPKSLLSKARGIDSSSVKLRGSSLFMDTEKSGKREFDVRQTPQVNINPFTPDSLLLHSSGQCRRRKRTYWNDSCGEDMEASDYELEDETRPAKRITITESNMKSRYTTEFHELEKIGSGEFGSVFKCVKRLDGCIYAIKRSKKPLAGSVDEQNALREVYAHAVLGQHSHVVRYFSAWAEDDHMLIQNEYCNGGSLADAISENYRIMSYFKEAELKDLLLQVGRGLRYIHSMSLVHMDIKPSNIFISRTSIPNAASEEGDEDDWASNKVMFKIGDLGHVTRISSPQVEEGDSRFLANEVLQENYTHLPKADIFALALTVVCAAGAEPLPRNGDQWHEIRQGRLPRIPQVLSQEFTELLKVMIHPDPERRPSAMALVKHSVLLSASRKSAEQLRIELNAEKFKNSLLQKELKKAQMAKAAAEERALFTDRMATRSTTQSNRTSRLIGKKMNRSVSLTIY
T4 sequence (Q96SW2 whole entry): as the sequence (Q96SW2 whole entry) above
T4 sequence (Q16531 whole entry partner): as the sequence (Q16531 whole entry partner) above

GSPT1 = target: T5, GSPT1 (Homo sapiens, UniProt P15170+Q96SW2); test: Western-blot assay, substrate protein degradation in hPBMCs: GSPT1
T5 construct: effects of the compounds of the present disclosure on the expression of target proteins in cells; endogenous in cells; host or cells: human PBMCs (hPBMCs)
T5 sequence (P15170 whole entry): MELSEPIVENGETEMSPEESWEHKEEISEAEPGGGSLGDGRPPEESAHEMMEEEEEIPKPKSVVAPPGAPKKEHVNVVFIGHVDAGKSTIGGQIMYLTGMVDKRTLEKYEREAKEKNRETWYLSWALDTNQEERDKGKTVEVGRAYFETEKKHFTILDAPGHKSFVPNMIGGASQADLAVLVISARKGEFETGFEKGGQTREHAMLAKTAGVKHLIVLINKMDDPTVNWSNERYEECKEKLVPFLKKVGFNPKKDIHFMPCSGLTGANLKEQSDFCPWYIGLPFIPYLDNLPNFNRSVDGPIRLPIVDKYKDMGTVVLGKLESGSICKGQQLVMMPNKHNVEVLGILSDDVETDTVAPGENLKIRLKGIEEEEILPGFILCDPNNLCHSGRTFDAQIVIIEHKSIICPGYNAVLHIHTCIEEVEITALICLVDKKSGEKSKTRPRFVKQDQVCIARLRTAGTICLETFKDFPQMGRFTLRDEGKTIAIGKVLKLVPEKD
T5 sequence (Q96SW2 whole entry): as the sequence (Q96SW2 whole entry) above
T5 sequence (Q16531 whole entry partner): as the sequence (Q16531 whole entry partner) above

IKZF1 = target: T6, IKZF1 (Homo sapiens, UniProt Q13422+Q96SW2); test: Western-blot assay, substrate protein degradation in hPBMCs: IKZF1
T6 construct: effects of the compounds of the present disclosure on the expression of target proteins in cells; endogenous in cells; host or cells: human PBMCs (hPBMCs)
T6 sequence (Q13422 whole entry): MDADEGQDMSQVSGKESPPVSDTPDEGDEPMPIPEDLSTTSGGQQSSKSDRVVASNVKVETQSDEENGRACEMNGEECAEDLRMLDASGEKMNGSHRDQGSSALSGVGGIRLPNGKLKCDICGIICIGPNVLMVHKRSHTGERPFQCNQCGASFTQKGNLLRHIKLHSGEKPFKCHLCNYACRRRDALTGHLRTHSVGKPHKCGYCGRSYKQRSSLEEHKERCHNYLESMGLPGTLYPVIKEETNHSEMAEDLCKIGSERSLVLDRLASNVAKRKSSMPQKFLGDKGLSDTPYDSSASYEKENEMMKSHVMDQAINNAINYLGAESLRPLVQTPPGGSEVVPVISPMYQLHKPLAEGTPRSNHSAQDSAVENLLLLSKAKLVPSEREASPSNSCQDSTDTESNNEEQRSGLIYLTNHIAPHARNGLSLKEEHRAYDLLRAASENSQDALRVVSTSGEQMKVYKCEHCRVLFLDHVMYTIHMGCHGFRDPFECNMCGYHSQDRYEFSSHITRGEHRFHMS
T6 sequence (Q96SW2 whole entry): as the sequence (Q96SW2 whole entry) above
T6 sequence (Q16531 whole entry partner): as the sequence (Q16531 whole entry partner) above

Row | SMILES | substrate protein remaining % IKZF3 (IKZF3) | substrate protein remaining % CK1α (CK1α) | substrate protein remaining % IKZF2 (IKZF2) | substrate protein remaining % WEE1 (WEE1) | substrate protein remaining % GSPT1 (GSPT1) | substrate protein remaining % IKZF1 (IKZF1)
1 | O=C1CCN(N2C(=O)c3ccc(CN4C5CCC4CN(c4cccc(Cl)c4Cl)C5)cc3C2=O)C(=O)N1 [GT-07438, 5-((3-(2,3-dichlorophenyl)-3,8-diazabicyclo[3.2.1]octan-8-yl)methyl)-2-(2,4-dioxotetrahydropyrimidin-1(2H)-yl)isoindoline-1,3-dione] | B (80%< substrate protein remaining %≤ 100%) | A (0% ≤ substrate protein remaining % ≤ 80%) | B (80%< substrate protein remaining %≤ 100%) | A (0% ≤ substrate protein remaining % ≤ 80%) | A (0% ≤ substrate protein remaining % ≤ 80%) | B (80%< substrate protein remaining %≤ 100%)
2 | O=C1CCN(N2C(=O)c3ccc(CN4CCCN(c5cccc(Cl)c5Cl)CC4)cc3C2=O)C(=O)N1 [GT-07439, 5-((4-(2,3-dichlorophenyl)-1,4-diazepan-1-yl)methyl)-2-(2,4-dioxotetrahydropyrimidin-1(2H)-yl)isoindoline-1,3-dione] | B (80%< substrate protein remaining %≤ 100%) | A (0% ≤ substrate protein remaining % ≤ 80%) | B (80%< substrate protein remaining %≤ 100%) | B (80%< substrate protein remaining %≤ 100%) | A (0% ≤ substrate protein remaining % ≤ 80%) | B (80%< substrate protein remaining %≤ 100%)
3 | O=C1CCN(N2C(=O)c3ccc(CN4CC=C(c5ccnc(Cl)c5Cl)CC4)cc3C2=O)C(=O)N1 [GT-07440, 5-((2',3'-dichloro-3,6-dihydro-[4,4'-bipyridin]-1(2H)-yl)methyl)-2-(2,4-dioxotetrahydropyrimidin-1(2H)-yl)isoindoline-1,3-dione] | B (80%< substrate protein remaining %≤ 100%) | A (0% ≤ substrate protein remaining % ≤ 80%) | B (80%< substrate protein remaining %≤ 100%) | A (0% ≤ substrate protein remaining % ≤ 80%) | A (0% ≤ substrate protein remaining % ≤ 80%) | B (80%< substrate protein remaining %≤ 100%)
4 | O=C1CCN(N2C(=O)c3ccc(CN4CC=C(c5ccoc5)CC4)cc3C2=O)C(=O)N1 [GT-07442, 2-(2,4-dioxotetrahydropyrimidin-1(2H)-yl)-5-((4-(furan-3-yl)-3,6-dihydropyridin-1(2H)-yl)methyl)isoindoline-1,3-dione] | A (0% ≤ substrate protein remaining % ≤ 80%) | B (80%< substrate protein remaining %≤ 100%) | B (80%< substrate protein remaining %≤ 100%) | A (0% ≤ substrate protein remaining % ≤ 80%) | A (0% ≤ substrate protein remaining % ≤ 80%) | B (80%< substrate protein remaining %≤ 100%)
5 | O=C1CCN(N2C(=O)c3ccc(CN4CC=C(c5cncc(Cl)c5)CC4)cc3C2=O)C(=O)N1 [GT-07491, 5-((5-chloro-3',6'-dihydro-[3,4'-bipyridin]-1'(2'H)-yl)methyl)-2-(2,4-dioxotetrahydropyrimidin-1(2H)-yl)isoindoline-1,3-dione] | B (80%< substrate protein remaining %≤ 100%) | B (80%< substrate protein remaining %≤ 100%) | B (80%< substrate protein remaining %≤ 100%) | A (0% ≤ substrate protein remaining % ≤ 80%) | A (0% ≤ substrate protein remaining % ≤ 80%) | B (80%< substrate protein remaining %≤ 100%)
6 | O=C1CCN(N2C(=O)c3ccc(CN4CC=C(c5ncccc5F)CC4)cc3C2=O)C(=O)N1 [GT-07492, 2-(2,4-dioxotetrahydropyrimidin-1(2H)-yl)-5-((3-fluoro-3',6'-dihydro-[2,4'-bipyridin]-1'(2'H)-yl)methyl)isoindoline-1,3-dione] | B (80%< substrate protein remaining %≤ 100%) | A (0% ≤ substrate protein remaining % ≤ 80%) | B (80%< substrate protein remaining %≤ 100%) | B (80%< substrate protein remaining %≤ 100%) | B (80%< substrate protein remaining %≤ 100%) | B (80%< substrate protein remaining %≤ 100%)
7 | O=C1CCN(N2C(=O)c3ccc(CN4CCC(c5ccnc(F)c5F)CC4)cc3C2=O)C(=O)N1 [GT-07493, 5-((4-(2,3-difluoropyridin-4-yl)piperidin-1-yl)methyl)-2-(2,4-dioxotetrahydropyrimidin-1(2H)-yl)isoindoline-1,3-dione] | A (0% ≤ substrate protein remaining % ≤ 80%) | A (0% ≤ substrate protein remaining % ≤ 80%) | B (80%< substrate protein remaining %≤ 100%) | B (80%< substrate protein remaining %≤ 100%) | B (80%< substrate protein remaining %≤ 100%) | B (80%< substrate protein remaining %≤ 100%)
8 | O=C1CCN(N2C(=O)c3ccc(CN4CC=C(c5ccnc(F)c5F)CC4)cc3C2=O)C(=O)N1 [GT-07494, 5-((2',3'-difluoro-3,6-dihydro-[4,4'-bipyridin]-1(2H)-yl)methyl)-2-(2,4-dioxotetrahydropyrimidin-1(2H)-yl)isoindoline-1,3-dione] | B (80%< substrate protein remaining %≤ 100%) | A (0% ≤ substrate protein remaining % ≤ 80%) | B (80%< substrate protein remaining %≤ 100%) | A (0% ≤ substrate protein remaining % ≤ 80%) | B (80%< substrate protein remaining %≤ 100%) | B (80%< substrate protein remaining %≤ 100%)
9 | O=C1CCN(N2Cc3cc(CN4CCC(c5ccon5)CC4)ccc3C2=O)C(=O)N1 [GT-07495, 1-(5-((4-(isoxazol-3-yl)piperidin-1-yl)methyl)-1-oxoisoindolin-2-yl)dihydropyrimidine-2,4(1H,3H)-dione] | B (80%< substrate protein remaining %≤ 100%) | A (0% ≤ substrate protein remaining % ≤ 80%) | B (80%< substrate protein remaining %≤ 100%) | B (80%< substrate protein remaining %≤ 100%) | A (0% ≤ substrate protein remaining % ≤ 80%) | B (80%< substrate protein remaining %≤ 100%)
10 | O=C1CCN(N2Cc3cc(CN4CCN(c5noc6cc(F)ccc56)CC4)ccc3C2=O)C(=O)N1 [GT-07496, 1-(5-((4-(6-fluorobenzo[d]isoxazol-3-yl)piperazin-1-yl)methyl)-1-oxoisoindolin-2-yl)dihydropyrimidine-2,4(1H,3H)-dione] | B (80%< substrate protein remaining %≤ 100%) | A (0% ≤ substrate protein remaining % ≤ 80%) | B (80%< substrate protein remaining %≤ 100%) | B (80%< substrate protein remaining %≤ 100%) | A (0% ≤ substrate protein remaining % ≤ 80%) | B (80%< substrate protein remaining %≤ 100%)
11 | O=C1CCN(N2Cc3cc(CN4CCN(c5noc6ccncc56)CC4)ccc3C2=O)C(=O)N1 [GT-07497, 1-(5-((4-(isoxazolo[4,5-c]pyridin-3-yl)piperazin-1-yl)methyl)-1-oxoisoindolin-2-yl)dihydropyrimidine-2,4(1H,3H)-dione] | B (80%< substrate protein remaining %≤ 100%) | A (0% ≤ substrate protein remaining % ≤ 80%) | A (0% ≤ substrate protein remaining % ≤ 80%) | A (0% ≤ substrate protein remaining % ≤ 80%) | A (0% ≤ substrate protein remaining % ≤ 80%) | A (0% ≤ substrate protein remaining % ≤ 80%)
12 | O=C1CCN(N2Cc3cc(CN4CCN(c5nsc6cc(F)ccc56)CC4)ccc3C2=O)C(=O)N1 [GT-07500, 1-(5-((4-(6-fluorobenzo[d]isothiazol-3-yl)piperazin-1-yl)methyl)-1-oxoisoindolin-2-yl)dihydropyrimidine-2,4(1H,3H)-dione] | B (80%< substrate protein remaining %≤ 100%) | A (0% ≤ substrate protein remaining % ≤ 80%) | B (80%< substrate protein remaining %≤ 100%) | A (0% ≤ substrate protein remaining % ≤ 80%) | A (0% ≤ substrate protein remaining % ≤ 80%) | A (0% ≤ substrate protein remaining % ≤ 80%)
13 | O=C1CCN(N2Cc3cc(CN4CCN(c5c[nH]c6ncccc56)CC4)ccc3C2=O)C(=O)N1 [GT-07502, 1-(5-((4-(1H-pyrrolo[2,3-b]pyridin-3-yl)piperazin-1-yl)methyl)-1-oxoisoindolin-2-yl)dihydropyrimidine-2,4(1H,3H)-dione] | B (80%< substrate protein remaining %≤ 100%) | A (0% ≤ substrate protein remaining % ≤ 80%) | B (80%< substrate protein remaining %≤ 100%) | A (0% ≤ substrate protein remaining % ≤ 80%) | A (0% ≤ substrate protein remaining % ≤ 80%) | A (0% ≤ substrate protein remaining % ≤ 80%)
